Key:
PEDF mRNA [1] = test: PEDF mRNA level (qPCR) in ovaries of superovulated mice treated with DXR; assay type: in vivo, mouse; conditions: DXR 6 mg/kg IV vs saline; superovulated 7 weeks ICR female mice
Experimental: FIG. 1A is an illustration depicting the experimental setting: 7 weeks ICR female mice (n=5/group) were treated for superovulation with the standard pregnant mares' serum/human chorionic gonadotropin (PMSG/hCG) protocol [Ben-Aharon et al. Reproductive Biology and Endocrinology: RB&E (2010) 8: 20]. Twenty four hours post PMSG mice were administrated with DXR or saline (control). Ovaries were retrieved twenty four hours post hCG. […] Total RNA was extracted from the ovaries and changes in PEDF mRNA (relative quantification; RQ) level were measured by qPCR using specific primers for PEDF (SEQ ID NOs: 10-11); calibrated with HPRT (SEQ ID NOs: 6-7).
DXR damage was evaluated in 7 weeks ICR female mice following treatment for superovulation with pregnant mares' serum (PMSG, 7 IU) SC on day 0 and human chorionic gonadotropin (hCG, […]) SC on day 2. On day 1, mice were administered with DXR (6 mg/kg) or saline (control) IV. Mice ovaries were retrieved on day 3 (FIG. 1A). […]
Total RNA was isolated from various tissues (ovaries, eyes) or from granulosa cells, using Trizol reagent (Invitrogen) according to manufacturer's instructions, and quantified with the Nano-Drop spectrophotometer (ND-1000; Thermo Scientific). […] DNA was amplified using 1 μl RT reaction and 50 pmol gene-specific primers in ReadyMix™ mixture (Sigma). […]

[2] = test system: ovariectomized (OVX) ICR mice; test: Uterine weight, sub-acute tamoxifen model in ovariectomized mice; assay type: in vivo, mouse; parameters: uterine weight: dose or concentration left out as unconfirmed; conditions: tamoxifen 0.3-3.3 daily for 7 days
Experimental: (§1) DXR damage was evaluated in 7 weeks ICR female mice following treatment for superovulation with pregnant mares' serum (PMSG, 7 IU) SC on day 0 and human chorionic gonadotropin (hCG, […]) SC on day 2. On day 1, mice were administered with DXR (6 mg/kg) or saline (control) IV. Mice ovaries were retrieved on day 3 (FIG. 1A). The ability of rPEDF to overcome the destructive effect of DXR 7 weeks ICR female mice were treated with DXR (6 mg/kg) or saline (control) IV on day 0, rPEDF (2 mg/kg) or TRIS (control) was administered SC on day 1, followed by induction for superovulation with PMSG (7 IU) SC on day 4 and hCG (7 IU) SC on day 6. Mice ovaries were retrieved on day 7 (FIG. 2A). […] Mice uteri were excised at day 7. […] Mice treated with tamoxifen alone served as control. […] Mice treated with tamoxifen alone served as control.
(§2) At the end of each experiment, uteri were isolated, excised and weighed.

VEGF [3] = test: Uterine VEGF protein (western blot), sub-acute tamoxifen model; assay type: in vivo, mouse; conditions: tamoxifen daily for 7 days, various concentrations
Experimental: as §1
(§3) Samples were homogenized in cold lysis buffer (20 mM HEPES, 150 mM NaCl and 0.2% Igepal; sigma) and centrifuged at 12,000 rpm, for 15 min, at 4° C.). Proteins were separated by sodium dodecyl sulfate polyacrylamide gel electrophoresis (SDS-PAGE; 10%; Bio-Rad, Israel). […] Approximate molecular masses were determined by comparison with the migration of pre-stained protein standards (Bio-Rad). […] Intensity of the protein bands was quantified by Image J […] (NIH).

PEDF [4] = test: Uterine PEDF protein (western blot), sub-acute tamoxifen model; assay type: in vivo, mouse; conditions: tamoxifen daily for 7 days, increasing doses
PNPLA2 [5] = test: Uterine PNPLA2 mRNA (qPCR), sub-acute tamoxifen model; assay type: in vivo, mouse; conditions: sub-acute tamoxifen treatment
Experimental: DXR damage was evaluated in 7 weeks ICR female mice following treatment for superovulation with pregnant mares' serum (PMSG, 7 IU) SC on day 0 and human chorionic gonadotropin (hCG, […]) SC on day 2. On day 1, mice were administered with DXR (6 mg/kg) or saline (control) IV. Mice ovaries were retrieved on day 3 (FIG. 1A). […] Mice ovaries were retrieved on day 7 (FIG. 2A). […] Mice uteri were excised at day 7.
(§4) Total RNA was isolated from various tissues (ovaries, eyes) or from granulosa cells, using Trizol reagent (Invitrogen) according to manufacturer's instructions, and quantified with the Nano-Drop spectrophotometer (ND-1000; Thermo Scientific). First-strand cDNA was produced by RT (Maxima™ Reverse transcriptase, Thermo Scientific) from a total of 1 μg RNA, using oligo-dt primers (Thermo Scientific). DNA was amplified using 1 μl RT reaction and 50 pmol gene-specific primers in ReadyMix™ mixture (Sigma). Polymerase Chain Reaction (PCR) products were separated by 1.5% agarose gel electrophoresis and visualized by ethidium bromide staining. Changes in the level of expression of mRNA were detected by SYBR green reagent (SYBR® Green PCR Master Mix, ABI, Carlsbad, Calif., USA) along with 15 ng cDNA and specific primers, on a StepOnePlus Real-Time PCR System (Applied Biosystems, Foster City, Calif., USA).

Laminin receptor [6] = test: Uterine Laminin receptor mRNA (qPCR), sub-acute tamoxifen model; assay type: in vivo, mouse; conditions: sub-acute tamoxifen treatment
OVX ICR mice = test: Uterine weight, prolonged tamoxifen model in ovariectomized mice; assay type: in vivo, mouse; conditions: tamoxifen 2.5 μg/mouse 5 days per week for one month
Experimental: as §1, §2

VEGF [7] = test: Uterine VEGF protein (western blot), prolonged tamoxifen model; assay type: in vivo, mouse; conditions: tamoxifen 2.5 μg/mouse 5 days per week for one month
Experimental: as §1, §3

PEDF [8] = test: Uterine PEDF protein (western blot), prolonged tamoxifen model; assay type: in vivo; conditions: tamoxifen 2.5 μg/mouse 5 days per week for one month
PNPLA2 [9] = test: Uterine PNPLA2 mRNA (qPCR), prolonged tamoxifen model; assay type: in vivo, mouse; conditions: one month of tamoxifen treatment
Laminin receptor [10] = test: Uterine Laminin receptor mRNA (qPCR), prolonged tamoxifen model; assay type: in vivo, mouse; conditions: one month of tamoxifen treatment
CD34 = CD34 immunohistochemical staining of uterine blood vessels, prolonged tamoxifen model; assay type: in vivo, mouse; conditions: prolonged tamoxifen alone vs control
Experimental: as §1
Paraffin-embedded sections were deparaffinized, microwave heated while being subjected to an antigen retrieval agent (H-3300, Vector Laboratories Inc., Burlingame, Calif., USA), cooled on ice to room temperature, rinsed in PBS, incubated for 1 hour with PBSTg (0.2% Tween and gelatin in PBS), washed with PBS, blocked for 10 minutes in blocking solution (Cell Marque Corporation, Calif., USA) and incubated overnight with anti PNPLA2 or anti-CD34 primary antibodies. […]

ERα [11] = test: Uterine ERα mRNA (qPCR), sub-acute tamoxifen model; assay type: in vivo, mouse; conditions: sub-acute tamoxifen treatment
[12] = test system: progesterone receptor (PR); test: Uterine PR mRNA (qPCR), sub-acute tamoxifen model; assay type: in vivo, mouse; conditions: sub-acute tamoxifen treatment
ERα [13] = test: Uterine ERα mRNA (qPCR), prolonged tamoxifen model; assay type: in vivo, mouse; conditions: prolonged tamoxifen treatment
[14] = test system: progesterone receptor (PR); test: Uterine PR mRNA (qPCR), prolonged tamoxifen model; assay type: in vivo, mouse; conditions: prolonged tamoxifen treatment
Experimental: DXR damage was evaluated in 7 weeks ICR female mice following treatment for superovulation with pregnant mares' serum (PMSG, 7 IU) SC on day 0 and human chorionic gonadotropin (hCG, […]) SC on day 2. On day 1, mice were administered with DXR (6 mg/kg) or saline (control) IV. Mice ovaries were retrieved on day 3 (FIG. 1A). The ability of rPEDF to overcome the destructive effect of DXR 7 weeks ICR female mice were treated with DXR (6 mg/kg) or saline (control) IV on day 0, rPEDF (2 mg/kg) or TRIS (control) was administered SC on day 1, followed by induction for superovulation with PMSG (7 IU) SC on day 4 and hCG (7 IU) SC on day 6. Mice ovaries were retrieved on day 7 (FIG. 2A). […] Mice uteri were excised at day 7. […] Mice treated with tamoxifen alone served as control. […]
as §4, with “First-strand cDNA was produced by RT (Maxima™ Reverse transcriptase, Thermo Scientific) from a total of 1 μg RNA, using oligo-dt primers (Thermo Scientific).” left out, “Polymerase Chain Reaction (PCR) products were separated by 1.5% agarose gel electrophoresis and visualized by ethidium bromide staining.” left out

LH-15 cells = test: MTT cell viability assay in LH-15 granulosa cells under H2O2; assay type: cell-based, rat; conditions: H2O2 100-500 μM, 24 hours, 2% serum
Experimental: (§5) Rat granulosa cell line LH-15 [Suh et al. J Cell Biol (1992) 119: 439-450] was cultured in hormone-free DMEM-F12 medium, supplemented with penicillin (100 IU/ml; Biological Industries), streptomycin ([…]; Biological Industries) and 10% charcoal-stripped fetal bovine serum (CS-FBS; Invitrogen) (culture medium), as described previously (Breckwoldt et al. 1996, Sasson & Amsterdam 2002). Cells were serum-starved for 16 hours (0.1% CS-FBS) prior to and during recombinant PEDF (rPEDF) stimulation or incubated in 2% CS-FBS during H2O2 stimulation.
Equal amount of LH-15 cells were seeded onto 6-well plates to a final volume of 500 μl. Following treatments, each well was incubated for 30 minutes with 10 μl of MTT [3-(4, 5-Dimethylthiazol-2-yl)-2, 5-diphenyltetrazolium bromide; 5 mg/ml] followed by an additional 2-4 hours incubation period at 37° C. The reaction was terminated by addition of 110 μl HCl (0.07 M in isopropanol) and OD 560 nm was measured by the SpectraMax 190 microplate reader ([…], Eugene, Oreg., USA).

PEDF mRNA [15] = test: PEDF mRNA level (qPCR) in LH-15 cells exposed to H2O2; assay type: cell-based, rat; conditions: H2O2, 24 hours
Experimental: as §5
as §4, with “Polymerase Chain Reaction (PCR) products were separated by 1.5% agarose gel electrophoresis and visualized by ethidium bromide staining.” left out

BAX = BAX protein level (western blot) in LH-15 cells under H2O2; assay type: cell-based, rat; conditions: H2O2 treatment alone, 24 hours
Experimental: as §5
Samples were homogenized in cold lysis buffer (20 mM HEPES, 150 mM NaCl and 0.2% Igepal; sigma) and centrifuged at 12,000 rpm, for 15 min, at 4° C.). Proteins were separated by sodium dodecyl sulfate polyacrylamide gel electrophoresis (SDS-PAGE; 10%; Bio-Rad, Israel). Separated proteins were transferred onto nitrocellulose membranes (Whatman GmbH, Germany) in a mini tank transfer unit (TE 22, Amersham, UK). Approximate molecular masses were determined by comparison with the migration of pre-stained protein standards (Bio-Rad). Blots were blocked for 1 hour in TBST (10 mM Tris-HCl, pH=8.0, 150 mM NaCl, 0.05% Tween 20) containing 5% skim-milk (Alba, N.Y., USA) followed by an over-night incubation at 4° C. with primary antibodies. […] Intensity of the protein bands was quantified by Image J […] (NIH).

SOD-1 = SOD-1 mRNA level (qPCR) in LH-15 cells under H2O2; assay type: cell-based, rat; conditions: H2O2 treatment alone, 24 hours
Experimental: as §5
as §4, with “Polymerase Chain Reaction (PCR) products were separated by 1.5% agarose gel electrophoresis and visualized by ethidium bromide staining.” left out

GPX-1 = GPX-1 mRNA level (qPCR) in LH-15 cells under H2O2; assay type: cell-based, rat; conditions: H2O2 treatment alone, 24 hours
Experimental: as §5
as §4, with “Polymerase Chain Reaction (PCR) products were separated by 1.5% agarose gel electrophoresis and visualized by ethidium bromide staining.” left out

## COc1cccc2c1C(=O)c1c(O)c3c(c(O)c1C2=O)C[C@@](O)(C(=O)CO)C[C@@H]3O[C@H]1C[C@H](N)[C@H](O)[C@H](C)O1 [DXR, Doxorubicin]
PEDF mRNA [1]
  PEDF mRNA level in mice ovaries: significantly (P<0.05) reduced PEDF mRNA level

## CC/C(=C(\c1ccccc1)c1ccc(OCCN(C)C)cc1)c1ccccc1 [tamoxifen]
[2]
  uterine weight: dose dependent increase
VEGF [3]
  uterine VEGF protein level: up-regulated in a dose dependent manner
PEDF [4]
  uterine PEDF protein expression: down-regulated
PNPLA2 [5]
  PNPLA2 receptor mRNA level in uteri: up-regulated
Laminin receptor [6]
  Laminin receptor mRNA level in uteri: up-regulated
OVX ICR mice
  uterine weight: increase in uterine weight
VEGF [7]
  uterine VEGF protein level: up-regulation of VEGF protein level
PEDF [8]
  uterine PEDF protein level: down-regulation of PEDF protein level
PNPLA2 [9]
  PNPLA2 level in uteri: significantly increased
Laminin receptor [10]
  Laminin receptor level in uteri: did not change significantly
CD34
  density of uterine blood vessels (CD34 staining): remarkable increase in the density of uterine blood vessels
ERα [11]
  ERα mRNA level in uteri: up-regulated
[12]
  PR mRNA level in uteri: no significant effect
ERα [13]
  ERα mRNA expression in uteri: up-regulated
[14]
  PR expression in uteri: no significant effect

## OO [H2O2]
LH-15 cells
  cells viability (MTT): statistically significant (P<0.05), dose dependent, decrease in cells viability
PEDF mRNA [15]
  PEDF mRNA level in LH-15 cells: significantly (P<0.01) reduced PEDF mRNA level, already at a concentration of 100 μM
BAX
  BAX level: elevated
SOD-1
  SOD-1 mRNA level: decreased
GPX-1
  GPX-1 mRNA level: decreased

From patent US10130682B2, “Methods of using pigment epithelium derived factor (PEDF) for the treatment and prevention of agent-induced gonadal or uterine toxicity” (Ramot at Tel-Aviv University Ltd., priority 2014, dated 2018)
